Experimental data taken from US20110166121A1 (LG LIFE SCIENCES LTD., priority 2008, published 2011).
pKi: −log10 of the molar value. Structures can show the parent of a compound that is named as a salt.

test system: Human platelet aggregation caused by ADP; assay: Inhibition of ADP-induced platelet aggregation (Mimic-human PRP); format: cell-based; details: 20 μM ADP, human platelet concentrate diluted with PPP, absorption at 595 nm
Outline: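 Ki came from non-linear sigmoidal fits of inhibition, measured as the 3-min rise in absorbance at 595 nm after 20 μM ADP, relative to 0/20 μM ADP controls. Platelets (3–4×10^8/mL in PPP-diluted human PRP) were exposed to 0.01–30 μM compound for 20 min at room temperature beforehand.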

| Compound | pKi |
| --- | --- |
| CCCc1cc2c(N3CCn4c(nnc4C(F)(F)F)C3)nc(OC[C@H]3CCN(C(C)=O)C3)nc2s1 [Example 8-37, 1-{(S)-3-[6-Propyl-4-(3-trifluoromethyl-5,6-dihydro-8H-[1,2,4]triazolo[4,3-a]pyrazin-7-yl)-thieno[2,3-d]pyrimidin-2-yloxymethyl]-pyrrolidin-1-yl}-ethanone] | 7.37 |
| CCCc1cc2c(N3CCn4c(nnc4C(F)(F)F)C3)nc(N3CC[C@@H](NC(=O)C(C)C)C3)nc2s1 [Example 7-5, Hydrochloric acid salt of N-{(R)-1-[6-Propyl-4-(3-trifluoromethyl-5,6-dihydro-8H-[1,2,4]triazolo[4,3-a]pyrazin-7-yl)-thieno[2,3-d]pyrimidin-2-yl]-pyrrolidin-3-yl}-isobutyramide] | 7.49 |
| CCCc1cc2c(N3CCn4c(nnc4C(F)(F)F)C3)nc(-n3cc(N)cn3)nc2s1 [Example 9-56, 1-[6-Propyl-4-(3-trifluoromethyl-5,6-dihydro-8H-[1,2,4]triazolo[4,3-a]pyrazin-7-yl)-thieno[2,3-d]pyrimidin-2-yl]-1H-pyrazol-4-ylamine] | 7.52 |
| CCCc1cc2c(N3CCn4c(nnc4C(F)(F)F)C3)nc(OC[C@H]3CCCN3C(C)=O)nc2s1 [Example 8-28, -{(R)-2-[6-Propyl-4-(3-trifluoromethyl-5,6-dihydro-8H-[1,2,4]triazolo[4,3-a]pyrazin-7-yl)-thieno[2,3-d]pyrimidin-2-yloxymethyl]-pyrrolidin-1-yl}-ethanone] | 7.35 |
| CCCc1cc2c(N3CCn4c(nnc4C(F)(F)F)C3)nc(NC[C@@H]3CCN(C(C)=O)C3)nc2s1 [Example 8-19, 1-((S)-3-{[6-Propyl-4-(3-trifluoromethyl-5,6-dihydro-8H-[1,2,4]triazolo[4,3-a]pyrazin-7-yl)-thieno[2,3-d]pyrimidin-2-ylamino]-methyl}-pyrrolidin-1-yl)-ethanone] | 6.82 |
| CCCc1cc2c(N3CCn4c(nnc4C(F)(F)F)C3)nc(NCCNC=O)nc2s1 [Example 9-31, N-{2-[6-Propyl-4-(3-trifluoromethyl-5,6-dihydro-8H-[1,2,4]triazolo[4,3-a]pyrazin-7-yl)-thieno[2,3-d]pyrimidin-2-ylamino]-ethyl}-formamide] | 7.06 |
| CCCc1cc2c(N3CCn4c(nnc4C(F)(F)F)C3)nc(OC[C@@H]3CCN(C(C)=O)C3)nc2s1 [Example 8-34, 1-{(R)-3-[6-Propyl-4-(3-trifluoromethyl-5,6-dihydro-8H-[1,2,4]triazolo[4,3-a]pyrazin-7-yl)-thieno[2,3-d]pyrimidin-2-yloxymethyl]-pyrrolidin-1-yl}-ethanone] | 7.35 |
| CCCc1cc2c(N3CCn4c(nnc4C(F)(F)F)C3)nc(N3CC(=O)N(CCO)C3=O)nc2s1 [Example 9-51, 3-(2-Hydroxy-ethyl)-1-[6-propyl-4-(3-trifluoromethyl-5,6-dihydro-8H-[1,2,4]triazolo[4,3-a]pyrazin-7-yl)-thieno[2,3-d]pyrimidin-2-yl]-imidazolidine-2,4-dione] | 6.72 |
| CCCc1cc2c(N3CCn4c(nnc4C(F)(F)F)C3)nc(OC[C@H]3CCCN3)nc2s1 [Example 7-36, Hydrochloric acid salt of 7-[6-Propyl-2-((R)-1-pyrrolidin-2-ylmethoxy)-thieno[2,3-d]pyrimidin-4-yl]-3-trifluoromethyl-5,6,7,8-tetrahydro-[1,2,4]triazolo[4,3-a]pyrazine] | 7.00 |
| CCCc1cc2c(N3CCn4c(nnc4C(F)(F)F)C3)nc(NCCNC(=O)C(C)C)nc2s1 [Example 8-9, N-{2-[6-Propyl-4-(3-trifluoromethyl-5,6-dihydro-8H-[1,2,4]triazolo[4,3-a]pyrazin-7-yl)-thieno[2,3-d]pyrimidin-2-ylamino]-ethyl}-isobutyramide] | 6.82 |
| CCCc1cc2c(N3CCn4c(nnc4C(F)(F)F)C3)nc(N3CC(O)C(NC(=O)C(C)(C)O)C3)nc2s1 (stereo not shown) [Example 7-23, 2-Hydroxy-N-{4-hydroxy-1-[6-propyl-4-(3-trifluoromethyl-5,6-dihydro-8H-[1,2,4]triazolo[4,3-a]pyrazin-7-yl)-thieno[2,3-d]pyrimidin-2-yl]-pyrrolidin-3-yl}-2-methyl-propionamide] | 7.92 |
| CCCc1cc2c(N3CCn4c(nnc4C(F)(F)F)C3)nc(OCCC(=O)NC3CCCC3)nc2s1 [Example 9-69, N-Cyclopentyl-3-[6-propyl-4-(3-trifluoromethyl-5,6-dihydro-8H-[1,2,4]triazolo[4,3-a]pyrazin-7-yl)-thieno[2,3-d]pyrimidin-2-yloxy]-propionamide] | 6.26 |
| CCCc1cc2c(N3CCn4c(nnc4C(F)(F)F)C3)nc(N[C@@H]3CCN(C(C)=O)C3)nc2s1 [Example 8-16, 1-{(R)-3-[6-Propyl-4-(3-trifluoromethyl-5,6-dihydro-8H-[1,2,4]triazolo[4,3-a]pyrazin-7-yl)-thieno[2,3-d]pyrimidin-2-ylamino]-pyrrolidin-1-yl}-ethanone] | 7.46 |
| CCCc1cc2c(N3CCn4c(nnc4C(F)(F)F)C3)nc(N3CC(O)C(NC(=O)CO)C3)nc2s1 (stereo not shown) [Example 7-22, 2-Hydroxy-N-{4-hydroxy-1-[6-propyl-4-(3-trifluoromethyl-5,6-dihydro-8H-[1,2,4]triazolo[4,3-a]pyrazin-7-yl)-thieno[2,3-d]pyrimidin-2-yl]-pyrrolidin-3-yl}-acetamide] | 8.40 |
| CCCCN(C)C(=O)[C@H]1CCN(c2nc(N3CCn4c(nnc4C(F)(F)F)C3)c3cc(CCC)sc3n2)C1 [Example 9-63, (S)-1-[6-Propyl-4-(3-trifluoromethyl-5,6-dihydro-8H-[1,2,4]triazolo[4,3-a]pyrazin-7-yl)-thieno[2,3-d]pyrimidin-2-yl]-pyrrolidine-3-carboxylic acid butyl-methyl-amide] | 5.70 |
| CCCc1cc2c(N3CCn4c(nnc4C(F)(F)F)C3)nc(N3CC[C@H](NC(=O)C(C)(C)O)C3)nc2s1 [Example 1-107, 2-Hydroxy-2-methyl-N-{(S)-1-[6-propyl-4-(3-trifluoromethyl-5,6-dihydro-8H-[1,2,4]triazolo[4,3-a]pyrazin-7-yl)-thieno[2,3-d]pyrimidin-2-yl]-pyrrolidin-3-yl}-propionamide] | 7.72 |
| CCCc1cc2c(N3CCn4c(nnc4C(F)(F)F)C3)nc(N(C)CCNC(=O)OC)nc2s1 [Example 9-42, (2-{Methyl-[6-propyl-4-(3-trifluoromethyl-5,6-dihydro-8H-[1,2,4]triazolo[4,3-a]pyrazin-7-yl)-thieno[2,3-d]pyrimidin-2-yl]-amino}-ethyl)-carbamic acid methyl ester] | 7.57 |
| CCCC(=O)N[C@H]1CCN(c2nc(N3CCn4c(nnc4C(F)(F)F)C3)c3cc(CCC)sc3n2)C1 [Example 7-1, Hydrochloric acid salt of N-{(S)-1-[6-Propyl-4-(3-trifluoromethyl-5,6-dihydro-8H-[1,2,4]triazolo[4,3-a]pyrazin-7-yl)-thieno[2,3-d]pyrimidin-2-yl]-pyrrolidin-3-yl}-butyramide] | 7.96 |
| CCCc1cc2c(N3CCn4c(nnc4C(F)(F)F)C3)nc(N3CC[C@H](NC(=O)C4CCCCC4)C3)nc2s1 [Example 9-9, Cyclohexanecarboxylic Acid {(S)-1-[6-propyl-4-(3-trifluoromethyl-5,6-dihydro-8H-[1,2,4]triazolo[4,3-a]pyrazin-7-yl)-thieno[2,3-d]pyrimidin-2-yl]-pyrrolidin-3-yl}-amide] | 6.52 |
